The values that follow come from PubChem BioAssay (NCI).

Structures are written as SMILES.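 In this assay, cells in 96-well plates receive the compound at five concentrations for 48 hours. Endpoints are linearly interpolated between the surrounding concentrations. The concentration for 50% growth inhibition is given as GI50. Definition used: TGI = concentration required for complete inhibition of growth.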

Among the test systems are MALME-3M melanoma; U251 CNS; SK-MEL-2 melanoma; MOLT-4 leukemia; NCI-H522 lung; SF-268 CNS; UO-31 renal; SF-539 CNS; HCC-2998 colon; HCT-116 colon.
Assay in all cases: DTP human tumour cell line panel, 48 h

The TGI is the concentration at which net growth stops. A low value points to more potent growth arrest. With `CSC(CC(=O)O)C(=O)O` (centres undefined), the TGI in the assay with MALME-3M melanoma, in the assay with U251 CNS, with SK-MEL-2 melanoma, in the assay with MOLT-4 leukemia, in the assay with NCI-H522 lung and in the assay on SF-268 CNS was over 100 µM in each case. Besides, the TGI in the assay with UO-31 renal, in the assay with SF-539 CNS, in the assay on HCC-2998 colon and in the assay on HCT-116 colon was over 100 µM each time.
On to `CC(C)=CCC/C(C)=C/CC/C(C)=C/Cc1c(O)c2ccccc2oc1=O`, for which the TGI in the assay with MALME-3M melanoma, in the assay with U251 CNS, with SK-MEL-2 melanoma, with MOLT-4 leukemia, in the assay with NCI-H522 lung and in the assay with SF-268 CNS was over 100 µM throughout. The TGI with UO-31 renal, with SF-539 CNS, in the assay with HCC-2998 colon and in the assay on HCT-116 colon was over 100 µM throughout.
As a reminder, the GI50 is the concentration that inhibits growth by half. Take `C=CCN(/C=C1/C(=O)O[C@H](COC)[C@@]2(C)C1=C(O)C(=O)C1=C2[C@H](OC(C)=O)C[C@]2(C)C(=O)CC[C@@H]12)CC=C`: the GI50 in the assay on MALME-3M melanoma was 784 nM; in the assay on U251 CNS, 2.12 µM; in the assay on SK-MEL-2 melanoma, 1.22 µM; in the assay on MOLT-4 leukemia it was 1050 nM; in the assay with NCI-H522 lung it was 1410 nM; in the assay on SF-268 CNS it was 1.71 µM. The GI50 is 148 nM in the assay on UO-31 renal, 692 nM with SF-539 CNS, 0.385 µM in the assay with HCC-2998 colon and 1170 nM with HCT-116 colon. For the same compound, the TGI was over 10 µM in the assay with MALME-3M melanoma; over 10 µM in the assay with U251 CNS; over 6.23 µM with SK-MEL-2 melanoma; over 10 µM in the assay with MOLT-4 leukemia; over 10 µM in the assay with NCI-H522 lung; over 10 µM with SF-268 CNS. Further, the TGI was over 10 µM with UO-31 renal, over 5.24 µM in the assay with SF-539 CNS, over 7.08 µM in the assay with HCC-2998 colon and over 10 µM with HCT-116 colon.
For the compound `O=[N+]([O-])c1ccc(S(=O)Cc2ccccc2)c([N+](=O)[O-])c1` (centres undefined), the GI50 with MALME-3M melanoma is 1620 nM; in the assay with U251 CNS it was 11.4 µM; in the assay with SK-MEL-2 melanoma, 8.54 µM; in the assay with MOLT-4 leukemia, 2100 nM; in the assay on NCI-H522 lung it was 1320 nM; in the assay on SF-268 CNS it was 13.4 µM. For the same compound, the GI50 with UO-31 renal is 1470 nM; with SF-539 CNS, 3640 nM; in the assay with HCC-2998 colon, 16.6 µM; in the assay with HCT-116 colon, 1290 nM. For the same compound, the TGI with MALME-3M melanoma is 3.26 µM; in the assay with U251 CNS it was 24.3 µM; with SK-MEL-2 melanoma, 22.3 µM; with MOLT-4 leukemia, 4.88 µM; in the assay with NCI-H522 lung, 2.94 µM; in the assay on SF-268 CNS, 26.6 µM. Further, the TGI with UO-31 renal is 2.91 µM; in the assay on SF-539 CNS, 13.8 µM; in the assay with HCC-2998 colon, 30.2 µM; in the assay with HCT-116 colon, 2.55 µM.
As to `CO/C(=N\N=C\c1cccc(Cl)c1)c1ccncc1`, the TGI in the assay on MALME-3M melanoma, in the assay with U251 CNS, in the assay on SK-MEL-2 melanoma, in the assay on MOLT-4 leukemia, in the assay on NCI-H522 lung and with SF-268 CNS was over 10 µM each time. The TGI with UO-31 renal, with HCC-2998 colon and in the assay with HCT-116 colon was over 10 µM in each case.
`COc1ccc(NC(=O)C(=O)Cc2nc3ccc([N+](=O)[O-])cc3[nH]c2=O)c(OC)c1`: the TGI in the assay with MALME-3M melanoma, in the assay with SK-MEL-2 melanoma, in the assay on MOLT-4 leukemia, with NCI-H522 lung, in the assay on UO-31 renal and in the assay on SF-539 CNS was over 100 µM throughout. For the same compound, the TGI in the assay with HCC-2998 colon and in the assay on HCT-116 colon was over 100 µM throughout.
For the compound `CC1OC2=N[C@@H]1C(=O)N[C@@H](C(C)C)C1=N[C@H](C(=O)N[C@@H](C(C)C)C3=N[C@H](C(=O)N[C@@H](C(C)C)C4=N[C@H](C(=O)N[C@H]2C(C)C)C(C)O4)C(C)O3)C(C)O1` (some centres undefined), the TGI with MALME-3M melanoma, in the assay on U251 CNS, in the assay with SK-MEL-2 melanoma, with MOLT-4 leukemia, in the assay on NCI-H522 lung and in the assay with SF-268 CNS was over 10 µM throughout. Besides, the TGI with UO-31 renal, in the assay with SF-539 CNS and with HCC-2998 colon was over 10 µM throughout.
Turning to `O=C(c1ccc(Cl)cc1)c1ccc(OCCCCCCCCCCOc2ccc(C(=O)c3ccc(Cl)cc3)cc2)cc1`, the TGI in the assay with MALME-3M melanoma, with U251 CNS, in the assay on SK-MEL-2 melanoma, with MOLT-4 leukemia, in the assay on NCI-H522 lung and with SF-268 CNS was over 100 µM throughout. For the same compound, the TGI with UO-31 renal and in the assay on HCC-2998 colon was over 100 µM in each case.
With `CCCCCCCNc1nc(C(=O)OCC)ncc1-c1ccc(C(F)(F)F)cc1`, the GI50 was 41800 nM in the assay with MALME-3M melanoma; 34.1 µM in the assay on U251 CNS; 26.6 µM in the assay with SK-MEL-2 melanoma; 34400 nM in the assay with MOLT-4 leukemia; 31300 nM in the assay on NCI-H522 lung; 48.2 µM in the assay on SF-268 CNS. For the same compound, the GI50 is 16400 nM with UO-31 renal, 41.5 µM in the assay with HCC-2998 colon and 32000 nM in the assay on HCT-116 colon. For the same compound, the TGI in the assay on MALME-3M melanoma was over 100 µM; with U251 CNS, over 100 µM; with SK-MEL-2 melanoma it was 66.7 µM; with MOLT-4 leukemia, 96.2 µM; with NCI-H522 lung, over 100 µM; in the assay on SF-268 CNS it was over 100 µM. For the same compound, the TGI is 77.1 µM in the assay on UO-31 renal, over 100 µM with HCC-2998 colon and over 100 µM in the assay on HCT-116 colon.
Regarding `CCCCCCCCCCCCCCN`, the TGI in the assay with MALME-3M melanoma, in the assay on U251 CNS, with SK-MEL-2 melanoma, in the assay with MOLT-4 leukemia, in the assay on NCI-H522 lung and in the assay on SF-268 CNS was over 100 µM throughout. Also, the TGI in the assay with HCC-2998 colon and with HCT-116 colon was over 100 µM in each case.
As for `COC(=O)C(C(=O)C(=O)Nc1ccc(C(F)(F)F)cc1[N+](=O)[O-])c1csc(-n2nc(-c3ccccc3)cc2-c2ccccc2)n1` (centres undefined), the TGI in the assay with MALME-3M melanoma, with U251 CNS, in the assay with SK-MEL-2 melanoma, in the assay with MOLT-4 leukemia, in the assay with NCI-H522 lung and in the assay with UO-31 renal was over 100 µM in each case. Also, the total growth inhibition concentration (TGI) with SF-539 CNS, in the assay with HCC-2998 colon and in the assay with HCT-116 colon was over 100 µM each time.
